According to patent US11807693B2 (priority 2014, dated 2023):
Like-named read-outs stand apart in the source and are kept apart here. Each block holds one compound with its values, some of them ahead of it. Starred links: 1 amine or outer side, 2 acyl side, 3 side chain; linkers in the order of their positions; H or OH if unused. Non-standard residues stand in square brackets, D forms with d. Residues, ends and D or L forms follow the SMILES beside them. ξ: configuration not given here. *: point of attachment. dBip = N[C@H](Cc1ccc(-c2ccccc2)cc1)C(=O)O; Oic = O=C(O)[C@@H]1C[C@@H]2CCCC[C@@H]2N1; Phe(4-Cl) = N[C@@H](Cc1ccc(Cl)cc1)C(=O)O; Phe(4-I) = N[C@@H](Cc1ccc(I)cc1)C(=O)O; γGlu = O=C(O)[C@H](CCC(=O)[*:2])N[*:1]; d(β3hF) = N[C@@H](CC(=O)O)Cc1ccccc1; NMeR = CN[C@@H](CCCNC(=N)N)C(=O)O; Palmitoyl = CCCCCCCCCCCCCCCC(=O)*; Tridecanoyl = CCCCCCCCCCCCC(=O)*; hArg = N=C(N)NCCCC[C@H](N)C(=O)O; β3hF = N[C@H](CC(=O)O)Cc1ccccc1; Cha = N[C@@H](CC1CCCCC1)C(=O)O; NMeL = CN[C@@H](CC(C)C)C(=O)O; αMeL = CC(C)C[C@](C)(N)C(=O)O; αMeP = C[C@@]1(C(=O)O)CCCN1; ξαMeL = CC(C)CC(C)(N)C(=O)O; Nle = CCCC[C@H](N)C(=O)O; ξβ3hV = CC(C)C(N)CC(=O)O; 3TP = not defined here; AEEA = NCCOCCOCC(=O)O; Aib = CC(C)(N)C(=O)O

What was measured:
[1] = In vivo pharmacokinetics in rat; design: species or system Sprague-Dawley rats; conditions: for AUC(0-inf) / half-life: rat, in vivo, sc
Method: Evaluation of the in vivo pharmacokinetic profile of several pegylated and lipidated apelin polypeptides in rat was undertaken (FIGS. 9 and 10A-B). The apelin polypeptides were administered to Sprague-Dawley rats through subcutaneous (SC) administration and the pharmacokinetic profile for each polypeptide was subsequently evaluated. […] Blood samples collected over a 24 hr period were transferred into collection tubes containing potassium EDTA and stored on ice until processed. Plasma was obtained from blood by centrifugation. After transfer into a 96-well container, plasma samples were stored in a freezer maintained at approximately −80° C. Quantitative analysis of the apelin polypeptide in rat plasma samples was achieved using multiple reaction monitor (MRM) mode on a LC-MS/MS system.

[2] = In vitro stability in rat liver homogenate; format: in vitro ADME; conditions: tissue homogenate
In short: (§1)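 Stability was followed for 4 hr at 37° C. after spiking peptides (5 μM final) into rat plasma and tissue homogenates. Methanol quench with internal standard preceded high resolution LC-MS.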

rat APJ receptor = target: T1, rat APJ receptor (Rattus norvegicus, UniProt Q9JHG3); assay: [35S] GTPγS assay, rat APJ receptor; format: biochemical
T1 construct: expressed in transfected cells
T1 sequence (Q9JHG3 1-377): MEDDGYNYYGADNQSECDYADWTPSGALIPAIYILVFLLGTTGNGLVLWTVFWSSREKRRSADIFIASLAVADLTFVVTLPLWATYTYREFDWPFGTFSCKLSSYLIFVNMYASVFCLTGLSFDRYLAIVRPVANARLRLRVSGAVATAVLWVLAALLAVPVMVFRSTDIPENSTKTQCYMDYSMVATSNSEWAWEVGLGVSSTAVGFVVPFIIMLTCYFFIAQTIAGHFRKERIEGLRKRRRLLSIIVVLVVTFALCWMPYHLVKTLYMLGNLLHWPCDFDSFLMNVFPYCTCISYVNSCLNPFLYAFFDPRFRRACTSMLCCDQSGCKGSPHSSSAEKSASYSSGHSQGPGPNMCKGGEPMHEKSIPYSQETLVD
Method: The membranes were incubated with modified peptides in the assay buffer. […] Bound [^35S] GTPγS was separated from free radiolabel by filtration. The filter bound radioactivity was determined by liquid scintillation counting.

[3] = In vitro stability in rat plasma; format: in vitro ADME
In short: as §1

human APJ receptor = target: T2, human APJ receptor (Homo sapiens, UniProt P35414); assay: [35S] GTPγS assay, human APJ receptor; format: biochemical
T2 construct: expressed in transfected cells
T2 sequence (P35414 1-380): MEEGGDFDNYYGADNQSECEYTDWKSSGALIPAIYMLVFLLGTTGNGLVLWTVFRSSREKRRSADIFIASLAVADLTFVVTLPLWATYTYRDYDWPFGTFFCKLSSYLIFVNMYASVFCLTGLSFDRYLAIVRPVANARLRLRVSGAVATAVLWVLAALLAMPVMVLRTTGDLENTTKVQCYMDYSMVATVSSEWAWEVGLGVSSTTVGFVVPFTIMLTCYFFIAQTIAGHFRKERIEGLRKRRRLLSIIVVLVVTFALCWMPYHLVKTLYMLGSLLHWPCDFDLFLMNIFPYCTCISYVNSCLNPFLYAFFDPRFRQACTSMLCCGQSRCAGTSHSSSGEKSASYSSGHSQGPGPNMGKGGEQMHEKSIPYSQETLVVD

[4] = In vitro stability in rat kidney homogenate; format: in vitro ADME; conditions: rat, tissue homogenate
In short: as §1

rat plasma = conditions: 37° C., up to 4 hr
[5] = rat APJ receptor, read-out: EC50 Rat APJ Receptor

Compound: CCCCCCCCCCCCC(=O)N[C@@H](CCC(=O)NCCOCCOCC(=O)NCCOCCOCC(=O)N[C@@H](CCC(N)=O)C(=O)N[C@@H](CCCNC(=N)N)C(=O)N1CCC[C@H]1C(=O)N(C)[C@@H](CCCNC(=N)N)C(=O)N[C@@H](CC1CCCCC1)C(=O)N[C@@H](CO)C(=O)N[C@@H](Cc1c[nH]cn1)C(=O)N[C@@H](CCCCN)C(=O)NCC(=O)N1[C@H](C(=O)N[C@@H](CCCC)C(=O)N2CCC[C@H]2C(=O)N[C@H](CC(=O)O)Cc2ccccc2)C[C@@H]2CCCC[C@@H]21)C(=O)O [Peptide 379] ({Tridecanoyl-γGlu-AEEA-AEEA}-QRP[NMeR][Cha]SHKG[Oic][Nle]P[β3hF]-OH)
AUC(0-inf) ([1]; 0.1 mg/kg): 0.145 µM·h
half-life ([1]; 0.1 mg/kg): 0.261 h

Compound: CCCCCCCCCCCCC(=O)N[C@@H](CCC(=O)NCCOCCOCC(=O)NCCOCCOCC(=O)NC(CC(=O)N[C@@H](CCCNC(=N)N)C(=O)N1CCC[C@H]1C(=O)N(C)[C@@H](CCCNC(=N)N)C(=O)NC(C)(CC(C)C)C(=O)N[C@@H](CO)C(=O)N[C@@H](Cc1c[nH]cn1)C(=O)N[C@@H](CCCCN)C(=O)NCC(=O)N1[C@H](C(=O)N[C@@H](CCCC)C(=O)N2CCC[C@H]2C(=O)N[C@@H](Cc2ccc(Cl)cc2)C(=O)O)C[C@@H]2CCCC[C@@H]21)C(C)C)C(=O)O (stereo partly drawn) [compound 374] ({Tridecanoyl-γGlu-AEEA-AEEA}-[ξβ3hV]RP[NMeR][ξαMeL]SHKG[Oic][Nle]P[Phe(4-Cl)]-OH)
remaining at 4 h, 5 μM [2]: 11%
EC50 (rat APJ receptor; [5]): 0.503 nM
remaining at 4 h, 5 μM [3]: 66%
EC50 (human APJ receptor; human APJ receptor): 0.305 nM
remaining at 4 h, 5 μM [4]: 89%

Compound: CCCCCCCCCCCCC(=O)N[C@@H](CCC(=O)NCCOCCOCC(=O)NCCOCCOCC(=O)N[C@@H](CCC(N)=O)C(=O)N[C@@H](CCCNC(=N)N)C(=O)N1CCC[C@H]1C(=O)N(C)[C@@H](CCCNC(=N)N)C(=O)N[C@@H](CC1CCCCC1)C(=O)N[C@@H](CO)C(=O)N[C@@H](Cc1c[nH]cn1)C(=O)N[C@@H](CCCCN)C(=O)NCC(=O)N1[C@H](C(=O)N[C@@H](CCCC)C(=O)NC(C)(C)C(=O)N[C@@H](Cc2ccc(Cl)cc2)C(=O)O)C[C@@H]2CCCC[C@@H]21)C(=O)O [compound 382] ({Tridecanoyl-γGlu-AEEA-AEEA}-QRP[NMeR][Cha]SHKG[Oic][Nle][Aib][Phe(4-Cl)]-OH)
remaining at 4 h, 5 μM [2]: 6%
remaining at 4 h, 5 μM [3]: 91%
AUC(0-inf) ([1]; 0.5 mg/kg): 0.0961 µM·h
half-life ([1]; 0.5 mg/kg): 4.1 h
remaining at 4 h, 5 μM [4]: 2%

Compound: {Acetyl-NH} [hArg] r Q [hArg] P E [NMeLeu] S H K G [Oic] [pI-Phe] P [D-Bip] {COOH}
not cleaved (rat plasma): >90.0 % remaining at 4 hours

Compound: {H2}[3TP](20K-mPEGReg)[hArg]rQ[hArg]Pr[NMeLeu]SHKG[Oic][pI-Phe]P[D-Bip]{COOH} ({20K‑mPEGReg-3TP}-[hArg][dR]Q[hArg]P[dR][NMeL]SHKG[Oic][Phe(4-I)]P[dBip]-OH; reading uncertain) [SEQ ID NO: 103]
plasma concentration in rat ([1]; 20 kDa PEGylated peptides, FIG. 9, 1/10th the dose of the others): high plasma concentrations

Compound: {PDA}[AC4Abu][Aeea][Aeea][hArg]rQ[hArg]Pr[NMeLeu]SHKG[Oic][pI-Phe]P[D-Bip]{COOH}
not cleaved (rat plasma): >90.0 % remaining at 4 hours

Compound: {Palm} [AC4Abu] [Aeea] [Aeea] q R P [NMeArg] [Cha] S H K G [Oic] [Nle] [Inp] [4-Cl-F] {COOH}
not cleaved (rat plasma): >90.0 % remaining at 4 hours

Compound: {Palm} [AC4Abu] [Aeea] [Aeea] q R P [NMeArg] [Cha] S H K G [Pip] [Nle] [Nip] [4-Cl-F] {COOH}
not cleaved (rat plasma): >90.0 % remaining at 4 hours

Compound: {Palm} [AC4Abu] [Aeea] [Aeea] q [hArg] P r [Cha] S H K G [Oic] [Nle] P [D-BhPhe] {COOH}
not cleaved (rat plasma): 90 % remaining at 4 hours

Compound: {TDA}[AC4Abu][Aeea][Aeea][hArg]rQ[hArg]Pr[NMeLeu]SHKG[Oic][pI-Phe]P[D-Bip]{COOH}
not cleaved (rat plasma): >90.0 % remaining at 4 hours

Compound: {hexanoyl} [AC4Abu] [Aeea] [Aeea] Q R P [NMeArg] [Cha] S H K G [Oic] [Nle] [Aib] [4-Cl-F] {COOH}
not cleaved (rat plasma): >90.0 % remaining at 4 hours

The next lines start with results.

remaining at 4 h, 5 μM [2]: 10%
remaining at 4 h, 5 μM [3]: 83%
remaining at 4 h, 5 μM [4]: 13%
Compound: CCCCCCCCCCCCC(=O)N[C@@H](CCC(=O)NCCOCCOCC(=O)NCCOCCOCC(=O)N[C@@H](CCC(N)=O)C(=O)N[C@@H](CCCNC(=N)N)C(=O)N1CCC[C@H]1C(=O)N(C)[C@@H](CCCNC(=N)N)C(=O)N[C@@](C)(CC(C)C)C(=O)N[C@@H](CO)C(=O)N[C@@H](Cc1c[nH]cn1)C(=O)N[C@@H](CCCCN)C(=O)NCC(=O)N1[C@H](C(=O)N[C@@H](CCCC)C(=O)N2CCC[C@@]2(C)C(=O)N[C@@H](Cc2ccc(Cl)cc2)C(=O)O)C[C@@H]2CCCC[C@@H]21)C(=O)O [compound 376] ({Tridecanoyl-γGlu-AEEA-AEEA}-QRP[NMeR][αMeL]SHKG[Oic][Nle][αMeP][Phe(4-Cl)]-OH)
AUC(0-inf) ([1]; Sprague-Dawley, 0.5 mg/kg): 0.09 µM·h
half-life ([1]; Sprague-Dawley, 0.5 mg/kg): 1.48 h

remaining at 4 h, 5 μM [2]: < 1%
EC50 (rat APJ receptor; Table 16, read-out: EC50 Rat APJ Receptor): 0.253 nM
remaining at 4 h, 5 μM [3]: > 90%
EC50 (human APJ receptor; Table 16): 0.147 nM
remaining at 4 h, 5 μM [4]: 8%
Compound: CCCCCCCCCCCCC(=O)N[C@@H](CCC(=O)NCCOCCOCC(=O)NCCOCCOCC(=O)N[C@@H](CCC(N)=O)C(=O)N[C@@H](CCCNC(=N)N)C(=O)N1CCC[C@H]1C(=O)N(C)[C@@H](CCCNC(=N)N)C(=O)N[C@@H](CC1CCCCC1)C(=O)N[C@@H](CO)C(=O)N[C@@H](Cc1c[nH]cn1)C(=O)N[C@@H](CCCCN)C(=O)NCC(=O)N1CCC[C@@]1(C)C(=O)N[C@@H](CCCC)C(=O)N1CCC[C@H]1C(=O)N[C@@H](Cc1ccc(Cl)cc1)C(=O)O)C(=O)O [compound 418] ({Tridecanoyl-γGlu-AEEA-AEEA}-QRP[NMeR][Cha]SHKG[αMeP][Nle]P[Phe(4-Cl)]-OH)

remaining at 4 h, 5 μM [2]: 11%
EC50 (rat APJ receptor; [5]): 10.3 nM
remaining at 4 h, 5 μM [3]: 90%
EC50 (human APJ receptor; human APJ receptor): 1.25 nM
remaining at 4 h, 5 μM [4]: 9%
Compound: CCCCCCCCCCCCCCCC(=O)N[C@@H](CCC(=O)NCCOCCOCC(=O)NCCOCCOCC(=O)N[C@H](CCC(N)=O)C(=O)N[C@@H](CCCCNC(=N)N)C(=O)N1CCC[C@H]1C(=O)N[C@H](CCCNC(=N)N)C(=O)N[C@@H](CC1CCCCC1)C(=O)N[C@@H](CO)C(=O)N[C@@H](Cc1c[nH]cn1)C(=O)N[C@@H](CCCCN)C(=O)NCC(=O)N1[C@H](C(=O)N[C@@H](CCCC)C(=O)N2CCC[C@H]2C(=O)N[C@@H](CC(=O)O)Cc2ccccc2)C[C@@H]2CCCC[C@@H]21)C(=O)O [compound 614] ({Palmitoyl-γGlu-AEEA-AEEA}-[dQ][hArg]P[dR][Cha]SHKG[Oic][Nle]P[d(β3hF)]-OH)

not cleaved (rat plasma): >90.0 % remaining at 4 hours
Compound: {Acetyl-NH} E r Q [hArg] P r [NMeLeu] S H K G [Oic] [pI-Phe] P [D-Bip] {COOH}

not cleaved (rat plasma): >90.0 % remaining at 4 hours
Compound: {Acetyl-NH} [hArg] E Q [hArg] P r [NMeLeu] S H K G [Oic] [pI-Phe] P [D-Bip] {COOH}

not cleaved (rat plasma): >90.0 % remaining at 4 hours
Compound: {Palm} [AC4Abu] [Aeea] [Aeea] q R P [NMeArg] [Cha] S H K G [Oic] [Nle] [Aib] [D-BhPhe] {COOH}

not cleaved (rat plasma): >90.0 % remaining at 4 hours
Compound: {Palm} [AC4Abu] [Aeea] [Aeea] q R P [NMeArg] [Cha] S H K G [Oic] [Nle] [BhPro] [D-BhPhe] {COOH}

not cleaved (rat plasma): >90.0 % remaining at 4 hours
Compound: {Palm} [AC4Abu] [Aeea] [Aeea] q R P [NMeArg] [Cha] S H K G [Oic] [Nle] [aMePro] [D-BhPhe] {COOH}
